# In patent publication US10967023B2, “Preparation of a chinese medicinal composition including ginseng, ginkgo leaf and stigma croci” (priority 2014, dated 2021):
# Columns and labels:
# thrombosis of rats = assay: Artery-vein shunt thrombosis in rats (thrombus formation in vivo); design: species or system SD rats; details: compositions 3 g/kg, aspirin 0.0044 g/kg
# Description: (§1) The same volume of saline was given to the Blank control group. The rats were administered once a day for 7 days.
# Experiments of thrombus formation, in vivo: 1 h after 7 days of administration, the rats of the groups were hypnotized through intraperitoneal injection with 0.8% sodium pentobarbital, with a dose of 40 mg/kg referring to the artery-vein shunt thrombosis method [Zhang Jun Tian. Modern pharmacology experimental methods. Beijing: Beijing Medical University Press, 1998; 1216-1217], right common carotid artery and left external jugular vein were separated. Three sections of polyethylene plastic pipe were taken, the diameter of the middle section was 2 mm, the length was about 8.5 cm, the diameter of the two plastic pipe of the two ends were 1.5 mm, the length were 10 cm respectively. A No 4 operation silk thread that was weighed previously with a length of about 7 cm was placed in the plastic pipe in the middle section, wherein one end of the thread with the length of 0.5 cm was exposed to the pipe to fix the position, and a silk thread with a length of 6.5 cm was kept in the pipe, the polyethylene plastic pipe was filled with heparin solution, one end of the plastic tube was inserted into the left external jugular vein, the other end of the plastic tube was inserted into the right common carotid artery, then the bloodstream was opened immediately. […]
# [1] = system: ADP induced platelet aggregation of rats; assay: Platelet aggregation inhibition test (ADP induced, PRP of dosed rats); format: in vivo, SD rats; details: ADP 5 μmol/L
# Description: as §1
# Platelet aggregation inhibition test: 1 h after 7 days of administration to the rats of the groups, the rats were hypnotized according to the above method, a tube was inserted into the common carotid artery to collect blood, the blood was added 3.8% sodium citrate in a ratio of 1:9 to become anticoagulant, when it was centrifuged for 5 minutes at 500 rpm, the upper portion of the plasma was taken to be the platelet-rich plasma (PRP), the remaining part was centrifuged again for 15 minutes at 3,500 rpm, the supernatant was platelet poor plasma (the PPP), the number of platelet of PRP was counted with platelet counting instrument, the number of platelet of PRP was adjusted with PPP to about […]. The temperature of the sample tube was kept at 37° C. for 3 minutes, then 5 μL ADP was added (final concentration 5 μmol/L), stirring speed of the stirrer was 500 r/min, the space between the rows of the movement of the recording pen was recorded after adding, and the aggregation rate was calculated according to the following formula: Aggregation rate(%)=the itinerary of adding ADP×100%/0˜100% of the itinerary
# [2] = system: scopolamine hydrobromide induced acquired memory disorder model mice; assay: Scopolamine hydrobromide induced acquired memory disorder model mice, jumping platform test; format: in vivo, ICR mice; details: scopolamine 6 mg/kg mice; compositions 4 g/kg, Huperzine 0.00008 g/kg, Tanakan 0.03 g/kg, 15 days
# Description: The animals were intragastric administered once a day at a dose of 20 mL/kg, distilled water was given to blank control group and model group, one time a day, lasted for 15 days, 50 minutes after the administration on the 14th day, saline was given to the mice of blank control group through intraperitoneal injection in a volume of 10 ml/kg, the rest animals were given scopolamine through injection (6 mg/kg). 10 minutes later, the mice were placed on the jumping program automatic controller, to adapt for 3 minutes, then power on, the mice were stimulated by electric shock for 5 times, when the mice were stimulated, they jump to the diving platform to avoid electric shock, trained 5 minutes to obtain memory. 60 minutes after the administration on the 15th day, the animals were placed on the jumping program automatic controller, the number of times that the mice left the jump platform and received electric shock and the time of occurrence (the incubation period) were determined (number of errors). The results were analyzed statistically (t test).
# [3] = system: hippocampal pyramidal cell; assay: Pathological examination of hippocampus of VaD rats (HE); format: in vivo, SD rats; details: 2 months of administration
# Description: (§2) The sham group and the model group were given gavages of distilled water of the same volume. 2 months, 3 months after the models were created (1 month and 2 months after the administration), the time of the duration of MORRIS water maze were measured. After the last measurement, blood was taken from abdomens aorta, the brain was taken quickly, and the left hemisphere was solidified with liquid nitrogen. In ice bath, with 0.15M HCLO4 homogenates (1 ml was added for 100 mg brain weight) 14000×g 4° C., centrifuged for 20 min, the supernatant was taken, filtered with 0.22 μm membrane, 10 μl was fed into the auto sampler, the content of Ach was determined using HPLC; right hemisphere, 4 for each group, were solidified with formalin, dehydrated, embedded, sliced, HE dyed for pathological examination, homogenates of six brain tissue, AchE, SOD activity and MDA content (colorimetric method) were measured; Indicators such as neuropeptide Y, β-EP in plasma were determined (RIA). The results were analyzed statistically (t test).
# VaD rats = assay: MORRIS water maze in VaD rats (permanent ligation of bilateral common carotid artery); format: in vivo, SD rats
# Description: as §2
# [4] = system: sodium nitrite induced consolidate memory disorder mice; assay: Sodium nitrite induced consolidate memory disorder model mice, jumping platform test; format: in vivo, ICR mice; details: sodium nitrite 120 mg/kg mice; compositions 4 g/kg, Huperzine 0.00008 g/kg, Tanakan 0.03 g/kg, 15 days
# Description: (§3) Experimental grouping was the same as that of test example 5.
# The animals were intragastric administered once a day at a dose of 20 mL/kg, distilled water was given to the animals of blank control group and model group, one time a day, lasted for 15 days. 60 minutes after the administration on the 14th day, the mice were placed on the jumping program automatic controller, to train for 5 minutes, and the mice were stimulated by electric shock for 5 times. After the treatment, saline was given immediately to the mice of comparative group through back and neck subcutaneous injection in a volume of 10 ml/kg, sodium nitrite (120 mg/kg) were injected to the rest of the animals. 60 minutes after the administration on the 15th day, the animals of the groups were placed on the jumping program automatic controller, the number of errors and the incubation period of mice within 5 minutes were determined. The results were analyzed statistically (t test).
# [5] = system: Ach in brains of VaD rats; assay: Content of Ach in brains of VaD rats (HPLC); format: in vivo, SD rats; details: 2 months of administration, compositions 3 g/kg, Huperzine 0.00006 g/kg, Tanakan 0.02 g/kg
# Description: Mobile phase: Na2HPO4 (100 mmol/L), TMACl (0.5 mmol/L), OSA (2.0 mmo/L), MB reagent (0.005% v/v), diluted with redistilled water, 85% PH was adjusted to8.00 by H3PO4, filtered by 0.22 μm aqueous membrane.
# Chromatographic conditions: ESA582 type binary pump system, ESA ACH-3 column (150×3 mm 5 μm I.D.), former ESA immobilized enzyme reactor before columns (ESA ACH-SPR, 3 cm), flow rate, 0.35 mL/min, column temperature, 35° C.
# Test conditions: 5600 A electrochemical detector; 5040 type solid porous electrode (platinum working electrode, a solid state palladium reference electrode) potential: +300 mV.
# The results were analyzed statistically (t test).
# plasma NPY, β-EP = assay: Plasma NPY, β-EP of VaD rats (RIA); format: in vivo, SD rats; details: 2 months of administration, compositions 3 g/kg, Huperzine 0.00006 g/kg, Tanakan 0.02 g/kg
# Description: as §2
# [6] = system: SOD, GSH-Px, MDA, NO of brain tissue; assay: Activities of SOD, GSH-Px and contents of MDA, NO of brain tissue (ischemia-reperfusion + D-galactose mice); format: in vivo, ICR mice; details: 8 weeks, compositions 4 g/kg, Huperzine 0.00008 g/kg, Tanakan 0.03 g/kg
# Description: (§4) The mice were anaesthetized with chloral hydrate, incisions were made in the necks, ischemia and reperfusion surgery was applied: bilateral common carotid arteries were separated, were clipped by bulldog clamp for 20 minutes, loosened for 2 minutes, then were clipped again for 20 minutes then loosened, at the same time, the tails of the mice were cut, 0.5 mL blood was collected, repeated cerebral ischemia-reperfusion injury was formed, sutured the wounds of the rats then fed them in cages. 7 days after the operation, D-galactose (100 mg/kg, 10 mL/kg) was given to the mice through subcutaneous injection on the back, and simultaneously, the mice were intragastric administered (20 mL/kg) once a day, lasted for 8 weeks; for the sham group, common carotid arteries were separated without clipping, the same volume of saline was injected through subcutaneous injection on the back; for D-galactose group, common carotid arteries were separated without clipping, D-galactose (100 mg/kg, 10 mL/kg) was injected through subcutaneous injection on the back; the ischemia reperfusion group was received an ischemia reperfusion operation, the same volume of saline was injected through subcutaneous injection on the back. The sham group, complex model group, D-galactose group were given gavages of distilled water of the same volume.
# (§5) 8 weeks after the administration, the mice were trained for 3 days in the MRRIS water maze, two times a day, the learning and memory behavior were determined on the 4th day, on the 5th day, the heads were cut to take the brains, the brains were formulated into 10% homogenates with saline, the activities of AchE, SOD, GSH-Px, the contents of biochemical indicators such as MDA, NO in the brain tissues were determined (colorimetry). The results were analyzed statistically (t test)
# [7] = system: ischemic reperfusion and D-galactose induced learning and memory impairment mice; assay: MORRIS water maze in mice with ischemic reperfusion and subcutaneous D-galactose induced learning and memory impairment; format: in vivo, ICR mice; details: 8 weeks
# Description: as §4, §5
# [8] = system: reserpine induced acquired memory disorder model mice; assay: Reserpine induced acquired memory disorder model mice, jumping platform test; format: in vivo, ICR mice; details: reserpine 0.5 mg/kg mice; compositions 4 g/kg, Huperzine 0.00008 g/kg, Tanakan 0.03 g/kg, 15 days
# Description: as §3
# The animals were intragastric administered once a day at a dose of 20 mL/kg, distilled water was given to the blank control group and the model group, one time a day, lasted for 15 days. After the administration on the 14th day, saline was given immediately to the mice of the blank control group through back and neck subcutaneous injection in a volume of 10 ml/kg, the rest animals were given reserpine hydrochloride (0.5 mg/kg) through back and neck subcutaneous injection. 60 minutes after the injection, the mice were placed on the jumping program automatic controller, to adapt for 3 minutes, then power on, the mice were stimulated by electric shock for 5 times, when the mice were stimulated, they jump to the diving platform to avoid electric shock, trained 5 minutes to obtain memory. 60 minutes after the administration on the 15th day, the animals were placed on the jumping program automatic controller, the number of errors and the incubation period of mice within 5 minutes were determined. The results were analyzed statistically (t test).
# SOD, MDA of brain tissue = assay: Activity of SOD and content of MDA in the brains of VaD rats; format: in vivo, SD rats; details: 2 months of administration, compositions 3 g/kg, Huperzine 0.00006 g/kg, Tanakan 0.02 g/kg
# Description: as §2
# [9] = ischemia-reperfusion + D-galactose mice, compositions 4 g/kg, Huperzine 0.00008 g/kg, Tanakan 0.03 g/kg
compound,measurement,setting,value
CC(=O)Oc1ccccc1C(=O)O [Aspirin],inhibition at 4.4 mg/kg,"thrombosis of rats; Rattus norvegicus, 168 h, 7 days, versus control group, read-out: Inhibition rate (thrombosis)",30.9%
same,Wet weights of thrombus,"thrombosis of rats; once a day 7 days, artery-vein shunt 20 minutes",0.056 ± 0.011 g
same,Platelet aggregation,"[1]; rats dosed 7 days (compositions 3 g/kg, aspirin 0.0044 g/kg), PRP",23.27 ± 3.06 %
same,aggregation inhibition rate,"[1]; rats dosed 7 days, versus control group",49.57%
"C/C=C1\[C@H]2C=C(C)C[C@]1(N)c1ccc(=O)[nH]c1C2 [Huperzine, huperzine A]",number of errors Within 5 minutes,[2],0.6 ± 0.6
same,the incubation period Within 5 minutes,[2],281.6 ± 39.4 s
same,Pathological examination: arrangement of the hippocampal pyramidal cells,[3],slightly loose
same,"time of duration in MORRIS water maze, 2 months after the model was created","VaD rats; 1 month of administration, compositions 3 g/kg, Huperzine 0.00006 g/kg, Tanakan 0.02 g/kg",24.6 ± 19.0 s
same,"time of duration in MORRIS water maze, 3 months after the model was created","VaD rats; 2 months of administration, compositions 3 g/kg, Huperzine 0.00006 g/kg, Tanakan 0.02 g/kg",9.0 ± 5.2 s
same,"time of duration in MORRIS water maze, 1 month after the model was created",VaD rats; before administration,58.6 ± 26.6 s
same,The incubation time Within 5 min,[4],229.1 ± 94.6 s
same,number of errors Within 5 min,[4],0.5 ± 0.7
same,Ach,[5],1992.6 ± 590.0 ng/g wet weight of brain tissue
same,NPγ,"plasma NPY, β-EP",847.7 ± 189.1 pg/mL
same,β-EP,"plasma NPY, β-EP",1032.9 ± 109.5 pg/mL
same,GSH-Px,[6],28.58 ± 2.87 U/mgprot
same,MDA,[6],4.651 ± 0.832 nmol/mgprot
same,NO,[6],1.442 ± 0.295 nmol/mgprot
same,SOD,[6],159.8 ± 21.2 U/mgprot
same,Length of path (MORRIS water maze),[7]; [9],355.8 ± 234.1 cm
same,Time of duration (MORRIS water maze),[7]; [9],21.7 ± 14.6 s
same,Search strategy (MORRIS water maze),"[7]; score: straight line type 1 point, tendency type 2, edge type 3, random type 4, mice",2.4 ± 1.0 points
same,number of errors Within 5 min,[8],0.6 ± 0.9
same,the incubation period Within 5 min,[8],243.1 ± 38.4 s
same,MDA,"SOD, MDA of brain tissue",2.194 ± 0.251 μmol/mgprot
same,SOD,"SOD, MDA of brain tissue",51.7 ± 9.6 U/mgprot
